The values below come from article PMC7814170 (Molecular Biotechnology, 2021).

For one test, the target named is SARS-CoV-2 main protease 3CLpro (Severe acute respiratory syndrome coronavirus 2, UniProt P0DTD1). Description: cell-based. The settings on record: read-out: inhibition to viral protease (reduction in GFP fluorescent activity).
Turning to `CC(C)(C)NC(=O)N[C@H](C(=O)N1C[C@H]2[C@@H]([C@H]1C(=O)NC(CC1CCC1)C(=O)C(N)=O)C2(C)C)C(C)(C)C` (stereo partly shown) [Boceprevir, boceprevir, reference compound], the inhibition at 40 µM was 80%.
Still for that read-out and setting: next, `O=C1c2ccccc2NC(c2cc(Br)ccc2O)N1N=Cc1cc(Br)ccc1O` (stereo not shown) [QZ1, 3-(5-Bromo-2-hydroxybenzylideneamino)-2-(5-bromo-2-hydroxyphenyl)-2,3-dihydroquinazoline-4 (1H)-one]: 20 to 50%.
Still for that read-out and setting: under `O=C1c2ccccc2NC(c2cc(Cl)ccc2O)N1N=Cc1cc(Cl)ccc1O` (stereo not shown) [QZ2, 3-[(5-Chloro-2-hydroxy-benzylidene)-amino]-2-(5-chloro-2-hydroxy-phenyl)-2,3-dihydroquinazoline-4(1H)-one] stands 20 to 50%; under `COc1cc(Br)cc(C=NN2C(=O)c3ccccc3NC2c2cc(Br)cc(OC)c2O)c1O` (stereo not shown) [QZ3, 3-(5-Bromo-2-hydroxy-3-methoxybenzylideneamino)-2-(5-bromo-2-hydroxy-3-methoxyphenyl)-2,3-dihydroquinazoline-4(1H)-one], 20 to 50%.
The same measure, in the same setting: under `COc1ccc(O)c(C=NN2C(=O)c3ccccc3NC2c2cc(OC)ccc2O)c1` (stereo not shown) [QZ4, 3-(5-Methoxy-2-hydroxybenzylideneamino)-2(5-methoxy-2-hydroxyphenyl)-2,3-dihydroquinazoline-4(1H)-one] stands around 80%; under `O=C1c2ccccc2NC(c2cc([N+](=O)[O-])ccc2O)N1N=Cc1cc([N+](=O)[O-])ccc1O` (stereo not shown) [QZ5, 3-(5-Nitro-2-hydroxybenzylideneamino)-2(5-nitro-2-hydroxyphenyl)-2,3-dihydroquinazoline-4(1H)-one], 20 to 50%.

The next test concerns SARS-CoV-2 main protease.
Experiment: not given
The settings on record: read-out: EC50 measured by FRET-based enzymatic assay; cited from earlier work.
With `CC(C)(C)NC(=O)N[C@H](C(=O)N1C[C@H]2[C@@H]([C@H]1C(=O)NC(CC1CCC1)C(=O)C(N)=O)C2(C)C)C(C)(C)C` (stereo partly shown) [Boceprevir, boceprevir, reference compound], the EC50 is […].

By inhibition is commonly meant the share of the control response that was lost under treatment. As usually defined, the EC50 is the midpoint of the concentration-response curve.
